Reference: patent publication US6753322B2, “2-aminocarbonyl-9H-purine derivatives” (Pfizer Inc, priority 2000, dated 2004)

Tested on: neutrophils activated by fMLP
Experiment: superoxide production from neutrophils activated by fMLP
Type: cell-based
Conditions: Neutrophil; concentration giving 50% inhibition of fMLP-induced superoxide production compared to control response; human peripheral blood neutrophils, cytochalasin B priming, adenosine deaminase present, cytochrome C reduction readout
Experimental: This is evaluated by determining the compound profile in an assay where superoxide production was measured from neutrophils activated by fMLP. Neutrophils were isolated from human peripheral blood using dextran sedimentation followed by centrifugation through Ficoll-Hypaque solution. Any contaminating erythrocytes in the granulocyte pellet were removed by lysis with ice-cold distilled water. Superoxide production from the neutrophils was induced by fMLP in the presence of a priming concentration of cytochalasin B. Adenosine deaminase was included in the assay to remove any endogenously produced adenosine that might suppress superoxide production. The effect of the compound on the fMLP-induced response was monitored colorometrically from the reduction of cytochrome C within the assay buffer. The potency of the compounds was assessed by the concentration giving 50% inhibition (IC50) compared to the control response to fMLP.

IC50, < 100 nM:
CCNC(=O)[C@H]1O[C@@H](n2cnc3c(NCC(c4ccccc4)c4ccccc4)nc(C(=O)NCCNC(=O)NC4CCCCC4)nc32)[C@H](O)[C@@H]1O [Example 15]
CCNC(=O)[C@H]1O[C@@H](n2cnc3c(NCC(c4ccccc4)c4ccccc4)nc(C(=O)NCCNC(=O)NCc4ccccc4)nc32)[C@H](O)[C@@H]1O [Example 13]
CCNC(=O)[C@H]1O[C@@H](n2cnc3c(NCC(c4ccccc4)c4ccccc4)nc(C(=O)N[C@@H]4CCN(C(=O)NCCN(C(C)C)C(C)C)C4)nc32)[C@H](O)[C@@H]1O [Example 23]
CCNC(=O)[C@H]1O[C@@H](n2cnc3c(NCC(c4ccccc4)c4ccccc4)nc(C(=O)N[C@@H]4CCN(C(=O)NCCc5ccccc5)C4)nc32)[C@H](O)[C@@H]1O [Example 26]
CCNC(=O)[C@H]1O[C@@H](n2cnc3c(NCC(c4ccccc4)c4ccccc4)nc(C(=O)NCCNC(=O)NCC4CCN(Cc5ccccc5)CC4)nc32)[C@H](O)[C@@H]1O [Example 12]
CCNC(=O)[C@H]1O[C@@H](n2cnc3c(NCC(c4ccccc4)c4ccccc4)nc(C(=O)NCCNC(=O)NCCc4ccccc4)nc32)[C@H](O)[C@@H]1O [Example 14]
CCNC(=O)[C@H]1O[C@@H](n2cnc3c(NCC(c4cccc(C)c4)c4cccc(C)c4)nc(C(=O)NCCNC(=O)NCCN(C(C)C)C(C)C)nc32)[C@H](O)[C@@H]1O [Example 30, 6-{[2,2-Bis(3-methylphenyl)ethyl]amino}-N-{2-[({[2-(diisopropylamino)ethyl]amino}carbonyl)-amino]ethyl}-9-{(2R,3R,4S,5S)-5-[(ethylamino)carbonyl]-3,4-dihydroxytetrahydro-2-furanyl}-9H-purine-2-carboxamide]
CCNC(=O)[C@H]1O[C@@H](n2cnc3c(NCC(c4ccccc4)c4ccccc4)nc(C(=O)NCCCNC(=O)NCCN(C(C)C)C(C)C)nc32)[C@H](O)[C@@H]1O [Example 19]
CCNC(=O)[C@H]1O[C@@H](n2cnc3c(NCC(c4ccccc4)c4ccccc4)nc(C(=O)N4CC[C@@H](NC(=O)NCCN(C(C)C)C(C)C)C4)nc32)[C@H](O)[C@@H]1O [Example 28]
CCNC(=O)[C@H]1O[C@@H](n2cnc3c(NCC(c4ccccc4)c4ccccc4)nc(C(=O)NCCNC(=O)NCc4ccc(C(=O)O)cc4)nc32)[C@H](O)[C@@H]1O [Example 34, 4-[({[(2-{[(6-[(2,2-diphenylethyl)amino]-9-{(2R,3R,4S,5S)-5-[(ethylamino)carbonyl]-3,4-dihydroxytetrahydro-2-furanyl}-9H-purine-2-yl)carbonyl]amino}ethyl)amino]carbonyl}-amino)methyl]benzoic acid]
CCNC(=O)[C@H]1O[C@@H](n2cnc3c(NCC(c4ccccc4)c4ccccc4)nc(C(=O)NCCNC(=O)NCCN4CCC(C(C)C)CC4)nc32)[C@H](O)[C@@H]1O [Example 5, 6-[(2,2-Diphenylethyl)amino]-9-{(2R,3R,4S,5S)-5-[(ethylamino)carbonyl]-3,4-dihydroxytetrahydro-2-furanyl}-N-{2-[({[2-(4-isopropyl-1-piperidinyl)ethyl]amino}carbonyl)amino]ethyl}-9H-purine-2-carboxamide]
CCNC(=O)[C@H]1O[C@@H](n2cnc3c(NCC(c4ccccc4)c4ccccc4)nc(C(=O)NCCNC(=O)NCCN(C(C)C)C4CCCC4)nc32)[C@H](O)[C@@H]1O [Example 6, N-(2-{[({2-[Cycopentyl(isopropyl)amino]ethyl}amino)carbonyl]amino}ethyl)-6-[(2,2-diphenylethyl)amino]-9-{(2R,3R,4S,5S)-5-[(ethylamino)carbonyl]-3,4-dihydroxytetrahydro-2-furanyl}-9H-purine-2-carboxamide]
CCNC(=O)[C@H]1O[C@@H](n2cnc3c(NCC(c4ccccc4)c4ccccc4)nc(C(=O)NCCCNC(=O)NCCN4CCCCC4)nc32)[C@H](O)[C@@H]1O [Example 18]
CCNC(=O)[C@H]1O[C@@H](n2cnc3c(NCC(c4ccccc4)c4ccccc4)nc(C(=O)NCCNC(=O)NCCN(C(C)C)C(C)C)nc32)[C@H](O)[C@@H]1O [Example 2]
CCCCN(CCCC)CCNC(=O)NCCNC(=O)c1nc(NCC(c2ccccc2)c2ccccc2)c2ncn([C@@H]3O[C@H](C(=O)NCC)[C@@H](O)[C@H]3O)c2n1 [Example 9]
CCNC(=O)[C@H]1O[C@@H](n2cnc3c(NCC(c4ccccc4)c4ccccc4)nc(C(=O)NCCNC(=O)NCCN4CCc5ccccc5C4)nc32)[C@H](O)[C@@H]1O [Example 16]
CCNC(=O)[C@H]1O[C@@H](n2cnc3c(NCC(c4ccccc4)c4ccccc4)nc(C(=O)NCCNC(=O)NCCN(Cc4ccccc4)C(C)C)nc32)[C@H](O)[C@@H]1O [Example 11]
O=C(NCCNC(=O)c1nc(NCC(c2ccccc2)c2ccccc2)c2ncn([C@@H]3O[C@H](CO)[C@@H](O)[C@H]3O)c2n1)NCCN1CCCCC1 [Example 3, 9-[(2R,3R,4S,5R)-3,4-Dihydroxy-5-(hydroxymethyl)tetrahydro-2-furanyl]-6-[(2,2-diphenylethyl)amino]-N-{2-[({[2-(1-piperidinyl)ethyl]amino}carbonyl)amino]ethyl}-9H-purine-2-carboxamide]
CCNC(=O)[C@H]1O[C@@H](n2cnc3c(NCC(c4ccccc4)c4ccccc4)nc(C(=O)N[C@@H]4CCN(C(=O)NCc5ccccc5)C4)nc32)[C@H](O)[C@@H]1O [Example 24]
CCNC(=O)[C@H]1O[C@@H](n2cnc3c(NCC(c4ccccc4)c4ccccc4)nc(C(=O)N[C@H]4CC[C@H](NC(=O)NCCN5CCCCC5)CC4)nc32)[C@H](O)[C@@H]1O [Example 20]
CCNC(=O)[C@H]1O[C@@H](n2cnc3c(NCC(c4cccc(Cl)c4)c4cccc(Cl)c4)nc(C(=O)NCCNC(=O)NCCN4CCCCC4)nc32)[C@H](O)[C@@H]1O [Example 32, 6-{[2,2-Bis(3-chlorophenyl)ethyl]amino}-9-{(2R,3R,4S,5S)-5-[(ethylamino)carbonyl]-3,4-dihydroxytetrahydro-2-furanyl}-N-{2-[({[2-(1-piperidinyl)ethyl]amino}carbonyl)amino]ethyl}-9H-purine-2-carboxamide]
CCNC(=O)[C@H]1O[C@@H](n2cnc3c(NCC(c4ccccc4)c4ccccc4)nc(C(=O)NCCNC(=O)NCCN(C(C)C)C4CCCCC4)nc32)[C@H](O)[C@@H]1O [Example 7, N-(2-{[({2-[Cyclohexyl(isopropyl)amino]ethyl}amino)carbonyl]amino}ethyl)-6-[(2,2-diphenylethyl)amino]-9-{(2R,3R,4S,5S)-5-[(ethylamino)carbonyl]-3,4-dihydroxytetrahydro-2-furanyl}-9H-purine-2carboxamide]
CCNC(=O)[C@H]1O[C@@H](n2cnc3c(NCC(c4ccccc4)c4ccccc4)nc(C(=O)N4CCC(NC(=O)NCc5ccccc5)CC4)nc32)[C@H](O)[C@@H]1O [Example 25]
CCNC(=O)[C@H]1O[C@@H](n2cnc3c(NCC(c4ccccc4)c4ccccc4)nc(C(=O)NCCNC(=O)NCCN4CCCCC4)nc32)[C@H](O)[C@@H]1O [Example 1, 6-[(2,2-Diphenylethyl)amino]-9-{(2R,3R,4S,5S)-5-[(ethylamino)carbonyl]-3,4-dihydroxytetrahydro-2-furanyl}-N-{2-[({[2-(1-piperidinyl)ethyl]amino}carbonyl)amino]ethyl}-9H-purine-2-carboxamide]
CCNC(=O)[C@H]1O[C@@H](n2cnc3c(NCC(c4ccccc4)c4ccccc4)nc(C(=O)N[C@@H]4CCN(C(=O)NC5CCN(c6ccccn6)CC5)C4)nc32)[C@H](O)[C@@H]1O [Example 27]
CCNC(=O)[C@H]1O[C@@H](n2cnc3c(NCC(c4ccccc4)c4ccccc4)nc(C(=O)N[C@H]4CC[C@H](NC(=O)NCCN(C(C)C)C(C)C)CC4)nc32)[C@H](O)[C@@H]1O [Example 21]
CCNC(=O)[C@H]1O[C@@H](n2cnc3c(NCC(c4cccc(Cl)c4)c4cccc(Cl)c4)nc(C(=O)NCCNC(=O)NCCN(C(C)C)C(C)C)nc32)[C@H](O)[C@@H]1O [Example 31]
CCNC(=O)[C@H]1O[C@@H](n2cnc3c(NCC(c4ccccc4)c4ccccc4)nc(C(=O)NC4CCN(C(=O)NCCN(C(C)C)C(C)C)CC4)nc32)[C@H](O)[C@@H]1O [Example 22]
CCNC(=O)[C@H]1O[C@@H](n2cnc3c(NCC(c4ccccc4)c4ccccc4)nc(C(=O)NCCNC(=O)NC4CCN(c5ccccn5)CC4)nc32)[C@H](O)[C@@H]1O [Example 8, 6-[(2,2-Diphenylethyl)amino]-9-{(2R,3R,4S,5S)-5-[(ethylamino)carbonyl]-3,4-dihydroxytetrahydro-2-furanyl}-N-{2-[({[1-(2-pyridinyl)-4-piperidinyl]amino}carbonyl)amino]ethyl}-9H-purine-2-carboxamide]
CCNC(=O)[C@H]1O[C@@H](n2cnc3c(NCC(c4cccc(C)c4)c4cccc(C)c4)nc(C(=O)NCCNC(=O)NCCN4CCCCC4)nc32)[C@H](O)[C@@H]1O [Example 33]
CCNC(=O)[C@H]1O[C@@H](n2cnc3c(NCC(c4ccccc4)c4ccccc4)nc(C(=O)NCCNC(=O)NC4CCN(Cc5ccccc5)CC4)nc32)[C@H](O)[C@@H]1O [Example 10]
